Results reported in patent EP0307553B1, “Modified splenopentines, their process of preparation and their use” (priority 1987, dated 1989).
“Also recorded” adds a separate entry of the source. Read-outs that look alike come from different tables or passages of the source.

Legend:
[1] = test system: T4-Antigenen auf der Oberfläche menschlicher Lymphocyten; assay: Increase of T4 antigens on the surface of human lymphocytes of SLE patients in vitro (monoclonal antibodies); format: cell-based, Mensch
Text: (§1) N^ε-MAc-SP5 (Sequenz 32 bis 36 des Milzhormons Splenin) hat die gleichen bzw. ähnliche immunbiologische Wirkungen wie das Gesamtmolekül Splenin. […] Funktionstüchtige T-Helferlymphocyten stimulieren die Antikörperbildung. Zum Nachweis einer Erhöhung der Antikörper-Bildung durch N^ε-MAc-SP5 wurde ein relevantes tierexperimentelles Modell gewählt: AB/Bln.-Mäuse wurden mit Röntgenstrahlen subletal bestrahlt und danach mit bzw. ohne N^ε-MAc-SP5 therapiert. Gleichzeitig erfolgte die Immunisierung der Tiere mit Schafserythrocyten. Da subletal bestrahlte Tiere die Fähigkeit verlieren, quantitativ ausreichend Antikörper zu produzieren, ist eine vermehrte Bildung von Antikörpern gegen Schafserythrocyten bei den mit N^ε-MAc-SP5 behandelten Tieren ein Maß für die Regeneration des Immunsystems durch N^ε-MAc-SP5. Mit N^ε-MAc-SP5 behandelte Tiere konnten bereits nach 34 Tagen Antikörper in gleicher Menge wie unbestrahlte Kontrolltiere bilden. Im Vergleich dazu waren nicht mit N^ε-MAc-SP5 behandelte Tiere dazu erst 48 Tage nach der einmaligen Röntgenbestrahlung befähigt.
Funktionstüchtige (reife) T-Helferlymphocyten besitzen auf ihrer Oberfläche T4-Antigene, T-Suppressorlymphocyten T8-Antigene. Bei Patienten mit Systemischem Lupus Erythematodes (SLE) wurde mittels monoklonaler Antikörper ein verminderter Gehalt von T4-Antigenen auf der Lymphocytenoberfläche bestimmt. […]

[2] = test system: Lymphocyten der SLE-Patienten; assay: 3H-thymidine incorporation of lymphocytes of SLE patients; format: cell-based, Mensch; details: after contact with N^ε-MAc-SP5; n = 5; no significant deviation from no contact (t-test)
Text: T4-Antigene nehmen zu, wenn sich T4-Zellen vermehren bzw., wenn die Antigene vermehrt auf ihrer Oberfläche exprimiert werden. Die Untersuchungen ergaben, daß die Lymphocyten der SLE-Patienten nach Kontakt mit N^ε-MAc-SP5 keine erhöhten ³H-Thymidineinbauraten aufwiesen (910 ± 180 Impulse je Minute ohne N^ε-MAc-SP-5-Kontakt/820 ± 210 Impulse je Minute nach Kontakt mit N^ε-MAc-SP5; n = 5, keine signifikante Abweichung im t-Test). Es ist daher anzunehmen, daß die Zunahme der T4-Antigene nicht durch eine Vermehrung von T4-Zellen zustandekommt, sondern Folge einer strukturellen Veränderung der T-Zelloberfläche, möglicherweise identisch mit einem "Reifeprozeß" der Zelle, ist.

AB/Bln.-Mäuse = assay: Antibody formation against sheep erythrocytes (Jerne plaque test) after sublethal X-ray irradiation; format: in vivo; details: 600 c Gy; 10 or 50 µg i.p. every second day; untreated irradiated animals 48 days
Text: as §1, with “befähigt. […]” for “befähigt.”

NMRI-Mäuse = format: in vivo; details: i. p., without DAc-SP5
Text: Der Einfluß von DAc-SP5 und immunsuppressiv wirkenden Verbindungen auf die Antigen-spezifische IgM-Antwort bei Mäusen wurde untersucht. Die erhaltenen Ergebnisse sind in den Fig.1 und 2 dargestellt.
DAc-SP5 rekonstituiert bereits durch wenige aufeinanderfolgende Applikationen die chemisch induzierts Suppression der humoralen Immunantwort.

männlichen Balb/c-Mäusen = details: in vivo

**Q.** What does the source list for “Arginyl(N^ε-acetyl-lysyl)glutamylvalyl)tyrpsin [N^ε-MAc-SP5]”?
**A.** TB-Antigene (Oberflächenantigene auf T-Suppressorlymphocyten bzw. cytotoxischen T-Lymphocyten) ([1]; lymphocytes of SLE patients after contact with N^ε-MAc-SP5): veränderten sich dagegen quantitativ nicht; Anzahl von T4-Antigenen ([1]; lymphocytes of SLE patients before therapy, 2 h incubation with N^ε-MAc-SP5): quantitative Zunahme von T4-Antigenen; also recorded: permanent erhöhte Anzahl von T4-Antigenen; ³H-Thymidineinbauraten [2]: 820 ± 210 Impulse je Minute; time after X-ray irradiation until Antikörper in gleicher Menge wie unbestrahlte Kontrolltiere (AB/Bln.-Mäuse): 34 Tage

**Q.** How did the “Antigen-spezifischen IgM-Antwort” value (NMRI-Mäuse; single dose 7,2 mg/Tier) turn out when `O=P1(N(CCCl)CCCl)NCCCO1` (centres unmarked) [Cyclophosphamid] was run?
**A.** nahezu vollständige Suppression

**Q.** For `C[C@@H]1C[C@H]2[C@@H]3CCC4=CC(=O)C=C[C@]4(C)[C@@]3(F)[C@@H](O)C[C@]2(C)[C@@]1(O)C(=O)CO` [Dexamethason], which “Antigen-spezifischen IgM-Antwort” value (NMRI-Mäuse; 0,2 mg/Tier or 0,08 mg/Tier) is on record?
**A.** Reduktion

**Q.** For `CCO` [Ethanol], which “% phagocytierende Peritonealzellen” value (männlichen Balb/c-Mäusen) is on record?
**A.** 29,0±1,7%

**Q.** And the “Milzmasse (mg)” value (männlichen Balb/c-Mäusen)?
**A.** 60,0±3,2 mg

**Q.** What about the Phagocytoseindex (männlichen Balb/c-Mäusen) of the same molecule?
**A.** 3,0±0,08

**Q.** And the “Plaque-bildende Zellen der Milz pro 10⁶ Zellen (Jerne-Plaquetest)” value (männlichen Balb/c-Mäusen)?
**A.** 61,3±3,8 pro 10⁶ Zellen

**Q.** And the “Thymusmasse (mg)” value (männlichen Balb/c-Mäusen)?
**A.** 15,0±2,6 mg
